The results in this text go back to patent US4552882A, “7-(1-Pyrrolyl) derivatives of 1-ethyl-1,4-dihydro-4-oxoquinoline-3-carboxylic acids and 1-ethyl-1,4-dihydro-4-oxo-1,8-naphthyridine-3-carboxylic acids and their use as antimicrobial agents” (Provesan, SA, priority 1983, dated 1985).

The MIC is the lowest concentration found to suppress growth.

Experiment in all cases: MIC in vitro
Holding throughout (assay type): cell-based

Test [1] concerns Citrobacter freundii ATCC 11606. The note with it: ATCC11606, Dextrose agar, 37° C., 20 hours. The method, then: (§1) (G. L. Daquet and Y. A. Chabbect, Techniques en bacteriologie (Bacteriological techniques), vol. 3, Flammarion Medecine Sciences, Paris, 1972 and W. B. Hugo and A. D. Rusell, Pharmaceutical Microbiology, Blackwell Scientific Publications, London, (1977)). Antibiotic medium no. 1 (seed agar) (Oxoid CM 327) Tryptone-soya broth (Oxoid CM 129) Ringer's physiological solution 1/4 (oxoid BR 52) Dextrose agar (BBL-11165) 0.1 N NaOH "Citrobacter freundii" ATCC 11606 Each of the microorganisms is seeded by streaking in tubes of Antibiotic medium No. 1 (seed agar), which are then incubated at 37° C. for 20 hours. Using a culture loop, the cultures are then seeded in tryptone-soyabroth and incubated at 37° C. for 20 hours. The culture obtained is diluted to 1/4 with Ringer's physiological solution, so as to obtain a standardized suspension of 10^7 -10^9 cfu/ml for each organism. Starting from a solution of 1,000 μg/ml in 0.1 N NaOH, each product is diluted in Dextrose agar (previously melted and maintained at 50° C.), with successive dilutions so as to obtain the following concentrations: 64--32--16--8--4--2--1--0.5--0.25--0.125 μg of derivative/ml medium. For each product, the solution of each concentration is subsequently distributed into Petri dishes 10 cm in diameter, with 10 ml of medium per dish and the same number of dishes as microorganisms to be tested. As soon as the medium has cooled, the dishes are seeded with the inoculations using 0.4 ml of inoculation per dish. They are spread with a Driglasky loop and the supernatant is removed. The seeded dishes are incubated at 37° C. for 20 hours.

Test [2] relates to Escherichia coli ATCC 10536. Particulars: ATCC10536, Dextrose agar, 37° C., 20 hours. The procedure:
as §1, with “"Escherichia coli"” for “"Citrobacter freundii"”, “10536” for “11606”

In the next test the test system is Escherichia coli R-1513. The note with it: R1513, Dextrose agar, 37° C., 20 hours. The method, then:
as §1, with “"Escherichia coli" R-1513” for “"Citrobacter freundii" ATCC 11606”

≈ marks a conversion by molar mass, not a printed value.

With `CCn1cc(C(=O)O)c(=O)c2ccc(-n3cccc3)cc21` [Example 1, 7-(1-pyrrolyl)-1-ethyl-1,4-dihydro-4-oxo-3-quinolinecarboxylic acid], the MIC in test [1] was found to be 16 µg/mL (≈ 56.7 µM); in test [2], 4 µg/mL (≈ 14.2 µM); against Escherichia coli R-1513, 16 µg/mL (≈ 56.7 µM).
As for `CCn1cc(C(=O)O)c(=O)c2ccc(-n3cccc3)nc21` [Example 3, 1-ethyl-1,4-dihydro-4-oxo-7-(1-pyrrolyl)-1,8-naphthyridine-3-carboxylic acid], the results for the minimum inhibitory concentration (MIC) (in test [1]; in test [2]; in the test on Escherichia coli R-1513) were 32 µg/mL (≈ 113 µM), 8 µg/mL (≈ 28.2 µM) and 16 µg/mL (≈ 56.5 µM), respectively.
`CCn1cc(C(=O)O)c(=O)c2cc(F)c(-n3cccc3)nc21` [Example 4, 1-ethyl-1,4-dihydro-4-oxo-6-fluoro-7-(1-pyrrolyl)-1,8-naphthyridine-3-carboxylic acid]: the MIC in test [1] was 4 µg/mL (≈ 13.3 µM); in test [2], 0.12 µg/mL (≈ 0.398 µM); against Escherichia coli R-1513, 4 µg/mL (≈ 13.3 µM).
Take `CCn1cc(C(=O)O)c(=O)c2cc(F)c(-n3cccc3)cc21` [Example 2, 6-fluoro-7-(1-pyrrolyl)-1-ethyl-1,4-dihydro-4-oxo-3-quinolinecarboxylic acid]: the results for the MIC (in test [1]; in test [2]; with Escherichia coli R-1513) were 8 µg/mL (≈ 26.6 µM), 1 µg/mL (≈ 3.33 µM) and 4 µg/mL (≈ 13.3 µM), respectively.
Consider `CCn1cc(C(=O)O)c(=O)c2cnc(N3CCNCC3)nc21` [Pipemidic acid, reference compound], for which the minimum inhibitory concentration (MIC) in test [1] amounted to 4 µg/mL (≈ 13.2 µM); in test [2] it was 2 µg/mL (≈ 6.59 µM); against Escherichia coli R-1513 it was 16 µg/mL (≈ 52.7 µM).
